Experimental data: patent US20200100505A1, “MICROBIAL INSECTICIDE FOR CONTROL OF MULBERRY THRIPS” (FARMHANNONG CO., LTD., priority 2017, published 2020)

Test system: Western flower thrips
Test: Insecticidal effect against thrips on caged potted tomato crop
Assay type: in vivo
Conditions: tomato pot in cage, granules 2 g per pot, clothianidin 0.02 g per pot
Description: An experiment on the insecticidal effect against thrips was carried out in a tomato crop. A population of the tomato crop having a height of 20 to 25 cm was used, and the tomato crop was put into a plastic cage (30×30×60 cm^3) equipped with a sieve with mesh smaller than that of Western flower thrips to prevent Western flower thrips from moving from a treatment zone, and an experiment was then performed.
A pot in which a tomato crop was planted, was treated with 2 g of the microbial insecticide granules of the present invention prepared in Example 1. Also, as the comparison group, the tomato crop was treated with an agricultural chemical (i.e., clothianidin) known to show a potent insecticidal effect against thrips at an amount of 0.02 g (i.e., an amount of 3 kg/10 a) per pot, and no insecticide was applied to the pot of the control group.

CN/C(=N\[N+](=O)[O-])NCc1cnc(Cl)s1 [clothianidin]
Thrips density After 20 days (after 20 days): 3.7 ± 0.5 number/plant
Thrips density After 40 days (after 40 days): 2.4 ± 0.4 number/plant
